The values that follow come from patent US6903100B2, “USE OF REGULARLY SCHEDULED HIGH DOSE INTRAVENOUS METHOTREXATE THERAPY, WITH INTERIM ADMINISTRATION OF IMMUNOMODULATORY AGENTS, TO TREAT MULTIPLE SCLEROSIS AND OTHER DISEASES OF THE CENTRAL NERVOUS SYSTEM” (MidAmerica Neuroscience Research Foundation, priority 2001, dated 2005).

SMILES strings stand for the structures. Where “and” joins values, the source holds several entries; their conditions need not be identical. Identical values can stand only once.

The nature of data set [1]: Methotrexate in cerebrospinal fluid (CSF) after infusion. The following applies: five CSF samples, several patients and time points after infusion of 2 g/m^2. It is filed as in vivo. On the procedure: Five samples of cerebrospinal fluid (CSF) were analyzed for methotrexate, representing several patients and several time points after methotrexate infusion of 2 g/m^2.

The next data set deals with relapsing progressive MS. Put plainly: MSFC clinical outcome (9-HPT, 25-ft walk, PASAT) in patients treated with bimonthly high dose IV methotrexate. It is filed as in vivo. More on the design: 9-HPT change / 25-ft walk change: unit not given here. As for the experimental part:
Ten patients of relapsing progressive MS were treated with bimonthly high dose intravenous methotrexate with leucovorin rescue, combined with interim treatment with low dose immunomodulatory agents.
(§1) Methotrexate treatments were given every 2 months for up to 6 treatments. Methotrexate was administered by IV at a dosage of 1 g/m^2 for the first three treatments. […] The patients were then switched to doses of 2 g/m^2 of methotrexate for three subsequent treatments. Methotrexate was given after hydration and alkalization, with urine pH 7.0 or greater. The infusion was followed by continued hydration for several hours.
(§2) Each methotrexate treatment was followed by intravenous leucovorin rescue with 50 mg leucovorin eight hours after the start of the methotrexate infusion. Oral leucovorin (25 mg) was administered every 6 hours for a total of 12 doses after intravenous leucovorin rescue, and the serum methotrexate level measured. If necessary oral leucovorin was continued until the serum level reached 0.05 μM.
At the time of study entry, all patients were being treated, with interferon (AVONEX® or BETA-SERON®), glatiramer acetate (COPAXONE®), or oral methotrexate. These medications were continued between treatments.
The clinical outcome was determined by MSFC scores at baseline and at two months follow up visits after each treatment. The MSFC is a clinical outcome measure, which measures three clinical functions involving hand dexterity, walking, and cognition. Two tailed paired t-test was used to compare the results of MSFC.

The subject of another data set is MS; CNS lymphomas. The following applies: cited from earlier work.
The nature of data set [2]: Safety of high dose IV methotrexate with leucovorin rescue in MS patients. It is filed as in vivo. As for the experimental part: as §1, §2
For data set [3] the following is noted: cited from earlier work; for crossing of the blood brain barrier (BBB) into the CNS: in vivo.
Where [4] appears, read: after one year of treatment, ten patients.
The mark [5] stands for this setting: all patients together, two tailed paired t-test.
Setting [6] is: all patients together, two tailed paired t-test, p<0.05.
Where [7] appears, read: individual patient, change from baseline after one year, IV 1 g/m^2 x3 then 2 g/m^2 x3, every 2 months, leucovorin rescue, interim agent.

On to `CN(Cc1cnc2nc(N)nc(N)c2n1)c1ccc(C(=O)N[C@@H](CCC(=O)O)C(=O)O)cc1` [Methotrexate, methotrexate], for which the “crossing of the BBB (methotrexate in CSF)” value in data set [1] is on record as “cross the BBB in cytotoxic amounts”. Further, in the data set with relapsing progressive MS (after 3 treatments at 1 g/m^2), the “MSFC scores of some of the patients” value was “improved significantly”. Besides, in the data set with relapsing progressive MS (setting [4]), the “maximum increase of overall MSFC” value is given as “+1.28” and the “minimum increase of overall MSFC” value is “+0.08”. Besides, the “clinical assessment with MSFC scores” value in the data set with relapsing progressive MS (after treatment) is listed as “significant improvement”. Moreover, in the data set on relapsing progressive MS (setting [5]), the “improvement in the 25-ft walk test” value is “not significant” and the “improvement in the PASAT test” value is recorded as “not significant”. In the data set on relapsing progressive MS (setting [6]), the “mean nine-hole peg score after treatment” value is “significant improvement” and the “mean overall MSFC score after treatment” value was “significant improvement”. Besides, in the data set with relapsing progressive MS (setting [7]), the 9-HPT change entry is “+0.45 and +0.86 and −0.31 and +0.20 and +0.83 and +0.30 and −0.10 and +0.80 and +1.07 and +0.70”; the 25-ft walk change result is “+0.04 and 0.00 and −0.01 (2×) and +0.08 and +0.14 and −0.04 and −0.07 and −0.22 and +0.53”; the MSFC change entry was “+0.38 and +0.31 and +0.25 and +0.18 and +0.13 and +0.09 and +0.08 (2×) and +1.28 and +0.56”; the PASAT change entry is “+0.66 and +0.08 and +1.08 and +0.25 and −0.58 and 0.00 and +0.41 and −0.33 and +2.24 and +0.99”. For the same compound, in the data set with relapsing progressive MS (of 10), the “PASAT (cognitive function): patients improved” value was 6 patients, the “PASAT (cognitive function): patients turned worse” value was found to be 2, the “PASAT (cognitive function): patients unchanged” value is reported as 2 and the “nine-hole peg test (arm function): patients improved” value is 8 patients. For the same compound, in the data set on relapsing progressive MS (of 10), the “nine-hole peg test (arm function): patients unchanged” value worked out at 1, the “nine-hole peg test (arm function): patients with minor worsening” value is recorded as 1 patient, the “timed 25-ft walk (leg function): patients unchanged” value was 7 and the “timed 25-ft walk (leg function): patients with improvement” value is 2 patients. For the same compound, the “timed 25-ft walk (leg function): patients with slight worsening” value in the data set with relapsing progressive MS (of 10) worked out at 1. Besides, in the data set with relapsing progressive MS (of 10, after one year, change >+0.1), the “patients improved on MSFC” value is reported as “seven”. In addition, in the data set on relapsing progressive MS (of 10, after one year, change less than 0.1), the “patients unchanged on MSFC” value is “three”. For the same compound, the “deterioration of symptoms of progressive MS” value with relapsing progressive MS (periodic high dose with leucovorin rescue and interim treatments) was “halted the deterioration of the symptoms in every patient treated”. In the data set with MS; CNS lymphomas (in vivo, iv), the “toxicity of high dose in CNS lymphoma trials” value is listed as “low toxicity” and the “toxicity of high dose sporadically administered” value is given as “no significant toxicity”. Moreover, the “toxicity of low-dose oral treatment in progressive MS” value with MS; CNS lymphomas (in vivo, po) was “minimal toxicity”. The “upper extremity strength in MS patients” value in the data set with MS; CNS lymphomas (oral treatments) was “mild improvement”. Further, the tolerability entry in data set [2] (IV 1 g/m^2, first three treatments) is “well tolerated”. Further, the renal toxicity result in data set [2] (after one treatment, 2-week follow up creatinine clearance within acceptable limits) is recorded as “one patient experienced Grade I renal toxicity”. Also, in data set [2] (ten patients), the alopecia entry is listed as “No alopecia was noted”. Moreover, in data set [2] (ten patients, up to 6 treatments), the hematological toxicity result was “No hematological toxicity was observed”. Also, the nausea entry in data set [2] (ten patients, easily treated with Zofran) is on record as “Five patients experienced some nausea”. Also, the “serum level relative to crossing the BBB” value in data set [3] (administered orally) is reported as “not sufficient to cross the BBB in cytotoxic amounts”.
In the case of `O=P1(N(CCCl)CCCl)NCCCO1` (centres unmarked) [cyclophosphamide], the “efficacy against the progression of MS” value in the data set on MS; CNS lymphomas (in vivo) is given as “some efficacy”. For the same compound, the “crossing of the blood brain barrier (BBB) into the CNS” value (“crossing of the blood brain barrier” for short) in data set [3] is “do not cross the blood brain barrier”.
Turning to `Nc1nc2c(c(=O)[nH]1)N(C=O)C(CNc1ccc(C(=O)N[C@@H](CCC(=O)O)C(=O)O)cc1)CN2` (some centres unmarked) [leucovorin], in data set [3], the “crossing of the blood brain barrier” value was “does not penetrate the BBB”.
As for `O=C1c2c(O)ccc(O)c2C(=O)c2c(NCCNCCO)ccc(NCCNCCO)c21` [mitoxantrone], in the data set on MS; CNS lymphomas (in vivo), the “efficacy against the progression of MS” value was “some efficacy” and the toxicity limiting use result is “limited lifetime use due to toxicity”. Moreover, in data set [3], the “crossing of the blood brain barrier” value is given as “do not cross the blood brain barrier”.
